Test [1] has as its system p21 promoter-luciferase construct. The test is described as follows: p21 reporter gene induction (HeLa cells, p21 promoter-luciferase construct).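 As to all read-outs here: transfected HeLa cells exposed to compound for 15 h, luciferase luminescence read from lysates, p21 promoter lacks p53 site, proxy for cellular HDAC1/2/3 inhibition.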 The settings on record: for p21 RP3: relative gene level of p21 compared to MS275 at 3 μM; for p21 RP10: relative level of p21 compared to MS275 at 10 μM; for p21 RP30: relative level of p21 compared to MS275 at 30 μM. A general note: Reporter assays use an easily measured gene product as a stand-in for the process of interest.

For another test, the system named is RPMI-8226. The test is described as follows: WST anti-proliferative assay, multiple myeloma cell line RPMI-8226. In kind it is cell-based. The settings on record: Homo sapiens, RPMI8226 cells, 72 hours, CCK-8. An excerpt: (§1) WST Anti-Proliferative Assay and Assessment of Growth Inhibitory of Novel Compounds in Multiple Myeloma Cell Lines.
The next test has as its target T1, recombinant human HDAC8 (Homo sapiens, UniProt Q9BY41).
T1 construct: made in house; host or cells: insect cells
T1 sequence (Q9BY41 1-377): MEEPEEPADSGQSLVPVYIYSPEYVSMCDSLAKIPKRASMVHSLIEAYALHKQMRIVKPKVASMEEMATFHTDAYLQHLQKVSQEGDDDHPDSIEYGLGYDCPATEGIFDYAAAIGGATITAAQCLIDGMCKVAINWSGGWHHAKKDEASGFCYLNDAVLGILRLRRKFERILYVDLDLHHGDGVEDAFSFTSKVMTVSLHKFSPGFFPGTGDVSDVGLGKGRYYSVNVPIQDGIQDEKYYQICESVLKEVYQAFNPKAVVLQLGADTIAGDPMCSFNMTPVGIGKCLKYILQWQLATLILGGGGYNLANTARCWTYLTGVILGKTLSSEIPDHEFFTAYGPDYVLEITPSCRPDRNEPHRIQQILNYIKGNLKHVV
Nature of the test: HDAC8 inhibition: recombinant HDAC8 fluorometric assay. The settings on record: recombinant human HDAC8, substrate Ac-Arg-His-Lys-Lys(ε-acetyl)-AMC; read-out: HDAC8 IC50. It counts as biochemical. The gist of the method:
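Recombinant human HDAC8 from insect cells was preincubated with compound for 15 min at rt, then given Ac-Arg-His-Lys-Lys(ε-acetyl)-AMC substrate for 30 min at rt. IC50 came from normalized percent inhibition with curve fitting.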

The target in a further test is T2, HDAC6 (Homo sapiens, UniProt Q9UBN7).
T2 construct: endogenous in cells; host or cells: A549 cells
T2 sequence (Q9UBN7 1-1215): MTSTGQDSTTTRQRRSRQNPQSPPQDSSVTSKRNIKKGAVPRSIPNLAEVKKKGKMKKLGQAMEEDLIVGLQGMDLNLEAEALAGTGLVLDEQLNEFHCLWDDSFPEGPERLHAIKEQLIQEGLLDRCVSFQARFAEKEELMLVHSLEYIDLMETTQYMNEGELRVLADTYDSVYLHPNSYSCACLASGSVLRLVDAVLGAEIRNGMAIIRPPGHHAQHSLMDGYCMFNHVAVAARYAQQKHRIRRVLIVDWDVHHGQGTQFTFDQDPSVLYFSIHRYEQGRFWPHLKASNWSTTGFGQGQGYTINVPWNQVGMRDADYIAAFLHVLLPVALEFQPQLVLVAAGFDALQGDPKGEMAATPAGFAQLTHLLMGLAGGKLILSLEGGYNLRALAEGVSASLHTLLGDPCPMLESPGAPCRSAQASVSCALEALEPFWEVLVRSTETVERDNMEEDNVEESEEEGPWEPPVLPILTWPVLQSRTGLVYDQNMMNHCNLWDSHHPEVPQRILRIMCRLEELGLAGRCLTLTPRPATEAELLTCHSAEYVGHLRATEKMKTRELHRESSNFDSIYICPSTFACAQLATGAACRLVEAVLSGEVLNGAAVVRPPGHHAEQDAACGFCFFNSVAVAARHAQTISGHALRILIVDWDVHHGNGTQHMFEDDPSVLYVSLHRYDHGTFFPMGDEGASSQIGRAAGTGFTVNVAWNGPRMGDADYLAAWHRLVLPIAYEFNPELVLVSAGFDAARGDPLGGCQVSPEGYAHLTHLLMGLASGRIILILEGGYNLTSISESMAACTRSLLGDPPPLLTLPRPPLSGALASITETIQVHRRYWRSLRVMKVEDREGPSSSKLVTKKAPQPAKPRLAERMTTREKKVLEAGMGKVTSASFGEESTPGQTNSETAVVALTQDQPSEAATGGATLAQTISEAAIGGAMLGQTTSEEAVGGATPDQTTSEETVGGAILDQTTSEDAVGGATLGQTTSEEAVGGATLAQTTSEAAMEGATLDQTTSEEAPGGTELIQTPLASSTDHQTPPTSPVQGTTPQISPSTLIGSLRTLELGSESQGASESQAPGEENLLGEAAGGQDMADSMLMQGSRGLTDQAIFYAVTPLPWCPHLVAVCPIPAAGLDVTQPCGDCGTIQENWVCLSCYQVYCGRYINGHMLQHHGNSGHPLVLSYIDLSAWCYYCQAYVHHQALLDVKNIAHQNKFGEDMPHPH
The test is described as follows: Tubulin acetylation cytoblot assay (A549 cells). It counts as cell-based. The settings on record: 17-18 h incubation, tubulin acetylation as marker of HDAC6 inhibition, read-out: Tub-Ac EC50. The gist of the method:
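Cells were exposed to compound for 17-18 h, then fixed with formaldehyde and permeabilized with cold MeOH. They were probed for 4 h at 4° C with anti-acetylated tubulin plus HRP anti-mouse IgG (each 1:750), and read by ECL luminescence. EC50 values came from curves normalized to top and bottom controls.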

The subject of the next test is OPM-2. Nature of the test: WST anti-proliferative assay, multiple myeloma cell line OPM-2. The settings on record: Homo sapiens; OPM-2 cells, 72 hours, CCK-8. It counts as cell-based.
Description: as §1

This is an account of results in patent publication US8404738B2 (Hoffmann-La Roche Inc., priority 2011, dated 2013).

pEC50, pIC50: −log10 of the molar value.

Regarding `O=C(NO)c1ccc(NC2CC(=O)N(c3ccccc3Cl)C2)cc1` (stereo not shown) [Example 71, 4-[1-(2-Chloro-phenyl)-5-oxo-pyrrolidin-3-ylamino]-N-hydroxy-benzamide], in test [1], the “p21 RP3” value was found to be 0.13, the “p21 RP10” value was determined as 0.06 and the “p21 RP30” value is reported as 0.04. The same molecule had a pIC50 in the test with RPMI-8226 of 5.25. For the same molecule, the pIC50 on recombinant human HDAC8 was 6.00. Moreover, the negative-log EC50 (pEC50) on HDAC6 was 6.09. This molecule had a negative-log IC50 (pIC50) in the test on OPM-2 of 5.46.
For the molecule `O=C(NO)c1ccc(NC2CC(=O)N(c3ccc(F)cc3)C2)cc1` (stereo not shown) [Example 70, 4-[1-(4-Fluoro-phenyl)-5-oxo-pyrrolidin-3-ylamino]-N-hydroxy-benzamide], the “p21 RP3” value in test [1] is recorded as −0.07. In addition, the “p21 RP10” value in test [1] worked out at 0.00. Moreover, the “p21 RP30” value in test [1] turned out to be 0.02. For the same molecule, the pIC50 was 4.97 in the test with RPMI-8226, 6.70 at recombinant human HDAC8 and 5.19 in the test with OPM-2. For the same molecule, the pEC50 at HDAC6 is 5.77.
Regarding `CC(C)Oc1ccc(N2CCC(Nc3ccc(C(=O)NO)cc3)C2=O)cc1` (stereo not shown) [Example 10, N-Hydroxy-4-[1-(4-isopropoxy-phenyl)-2-oxo-pyrrolidin-3-ylamino]-benzamide], in test [1], the “p21 RP3” value came out at 0.07, the “p21 RP10” value is given as 0.05 and the “p21 RP30” value is 0.05. Moreover, the pIC50 on recombinant human HDAC8 is 5.74. At HDAC6, the pEC50 is 5.67.
On to `CC(C)(c1ccc(-c2ccccc2)cc1)N1CCC(Nc2ccc(C(=O)NO)cc2)C1=O` (stereo not shown) [Example 51, 4-[1-(1-Biphenyl-4-yl-1-methyl-ethyl)-2-oxo-pyrrolidin-3-ylamino]-N-hydroxy-benzamide], for which, in test [1], the “p21 RP3” value was −0.14, the “p21 RP10” value is 0.60 and the “p21 RP30” value came to 0.38. Moreover, the negative-log IC50 (pIC50) at recombinant human HDAC8 was 6.04. In addition, the pEC50 at HDAC6 is 5.05.
The like results for `CC(C)Oc1cccc(N2CCC(Nc3ccc(C(=O)NO)cc3)C2=O)c1` (stereo not shown) [Example 9, N-Hydroxy-4-[1-(3-isopropoxy-phenyl)-2-oxo-pyrrolidin-3-ylamino]-benzamide] were, in that order, 0.24, 0.13, 0.23, 5.89 and 5.76.
With `O=C(NO)c1ccc(NC2CCN(c3cccc4ncccc34)C2=O)cc1` (stereo not shown) [Example 40, N-Hydroxy-4-(2-oxo-1-quinolin-5-yl-pyrrolidin-3-ylamino)-benzamide], in test [1], the “p21 RP3” value was found to be 0.25, the “p21 RP10” value was found to be 0.26 and the “p21 RP30” value amounted to 0.21. On recombinant human HDAC8, the negative-log IC50 (pIC50) was 6.29. Besides, the pEC50 at HDAC6 was 5.88.
The like results for `CC1C(=O)N(c2ccc(Cl)cc2)CC1Nc1ccc(C(=O)NO)cc1` (stereo not shown) [Example 78, 4-[1-(4-Chloro-phenyl)-4-methyl-5-oxo-pyrrolidin-3-ylamino]-N-hydroxy-benzamide] were, in that order, 0.64, 0.15, 0.04, 5.74 and 5.74.
For `O=C(NO)c1ccc(NC2CCN(c3c(Cl)cccc3Cl)C2=O)cc1` (stereo not shown) [Example 27, 4-[1-(2,6-Dichloro-phenyl)-2-oxo-pyrrolidin-3-ylamino]-N-hydroxy-benzamide], in that order: 0.11, 0.03, 0.04, 6.12 and 5.62.
The like results for `CC(C)(c1cccc(Cl)c1)N1CCC(Nc2ccc(C(=O)NO)cc2)C1=O` (stereo not shown) [Example 49, 4-{1-[1-(3-Chloro-phenyl)-1-methyl-ethyl]-2-oxo-pyrrolidin-3-ylamino}-N-hydroxy-benzamide] were, in that order, 0.41, 0.50, 0.85, 6.31 and 5.01.
On to `O=C(NO)c1ccc(NC2CCN(c3ccc(F)c(Cl)c3)C2=O)cc1` (stereo not shown) [Example 20, 4-[1-(3-Chloro-4-fluoro-phenyl)-2-oxo-pyrrolidin-3-ylamino]-N-hydroxy-benzamide], for which, in test [1], the “p21 RP3” value was 0.37, the “p21 RP10” value is 0.10 and the “p21 RP30” value is listed as 0.12. On recombinant human HDAC8, the negative-log IC50 (pIC50) is 5.92. Moreover, on HDAC6, the negative logarithm of the EC50 (pEC50) was 6.02.
For `COc1cccc(N2CCC(Nc3ccc(C(=O)NO)cc3)C2=O)c1` (stereo not shown) [Example 8, N-Hydroxy-4-[1-(3-methoxy-phenyl)-2-oxo-pyrrolidin-3-ylamino]-benzamide], in that order: 0.09, 0.15, 0.29, 6.23 and 5.39.
Regarding `CN(C)CCOc1cccc(N2CCC(Nc3ccc(C(=O)NO)cc3)C2=O)c1` (stereo not shown) [Example 36, 4-{1-[3-(2-Dimethylamino-ethoxy)-phenyl]-2-oxo-pyrrolidin-3-ylamino}-N-hydroxy-benzamide], in test [1], the “p21 RP3” value was determined as 0.55, the “p21 RP10” value stood at 0.18 and the “p21 RP30” value came to 0.45. Moreover, the pIC50 at recombinant human HDAC8 is 6.31. The pEC50 on HDAC6 is 5.69.
The like results for `O=C(NO)c1ccc(NC2CCN(c3ccc(Cl)c(CO)c3)C2=O)cc1` (stereo not shown) [Example 29, 4-[1-(4-Chloro-3-hydroxymethyl-phenyl)-2-oxo-pyrrolidin-3-ylamino]-N-hydroxy-benzamide] were, in that order, 0.55, 0.10, 0.12, 6.12 and 4.86.
With `N#Cc1ccc(N2CCC(Nc3ccc(C(=O)NO)cc3)C2=O)cc1` (stereo not shown) [Example 19, 4-[1-(4-Cyano-phenyl)-2-oxo-pyrrolidin-3-ylamino]-N-hydroxy-benzamide], in test [1], the “p21 RP3” value turned out to be 0.46, the “p21 RP10” value is reported as 0.00 and the “p21 RP30” value was −0.03. Besides, the pIC50 at recombinant human HDAC8 is 5.98. Moreover, the pEC50 on HDAC6 was 5.50.
The like results for `O=C(NO)c1ccc(NC2CCN(c3cc(Cl)cc(Cl)c3)C2=O)cc1` (stereo not shown) [Example 26, 4-[1-(3,5-Dichloro-phenyl)-2-oxo-pyrrolidin-3-ylamino]-N-hydroxy-benzamide] were, in that order, 0.42, 0.06, 0.04, 5.33 and 5.31.

One may read the pIC50 as −log10 of the IC50, conventionally taken in molar units. A word on the pEC50: it is −log10 of the EC50, conventionally taken in molar units.
